# Reference: patent US6383543B1, “Process for the extraction of an organic salt from plants, the salt, and other similar salts” (RAD Natural Technologies Ltd., priority 1998, dated 2002)
# Key:
# [1] = Antioxidant effect in water in oil emulsions from soybean oil, Rancimat (AOM) test at 100° C.; conditions: water in oil emulsion
# [2] = Antioxidant effect in oil in water emulsions containing soybean oil, TBA test at 50° C.; conditions: oil in water emulsion
# Description: (a) Oil in water emulsions were prepared from soybean oil (10%), Tween 80 (7%), Span 80 (3%), water (80%) and antioxidant (0.1 or 0.02%).
# [3] = Antioxidant effect in emulsions containing β-carotene; conditions: over a 100 hour time period; 0.1%
# Description: A model emulsion was then prepared by adding double-distilled water (25 ml) to the residue and diluting to 500 ml with phosphate buffer (pH 7.0). […] […] A control sample contained no antioxidant but instead, 95% ethanol (2 ml).
# [4] = Antioxidant effect in bulk oil (soybean oil) at 60° C.
# Description: A concentrate was first prepared containing 40% lecithin, 40% oil (e.g. soybean oil), 20% propylene glycol and 4% based on the foregoing mixture of 65% (≡2.6% pure) sodium rosmarinate.
# [5] = yes/no; cited from earlier work
# Solubility = assay type: physicochemical; conditions: for Solubility: lipid or water; for solubility in acetone: b32: essentially 100% acetone
# [6] = Comparative efficiency: time the antioxidant continues to inhibit oxidation of linoleic acid; assay type: biochemical; conditions: time until antioxidant is consumed and rate of change of absorption at 234 nm reverts to control
# Description: The method is based on the rate of oxidation of linoleic acid (LA) to its conjugated diene hydroperoxide (Pryor et al., in J. Org. […] A 1% LA aq. emulsion was prepared with 1% Tween 20 and 0.05M sodium phosphate buffer (pH 7.4). A control sample contained 0.025 ml of the LA emulsion+2.87 ml. of the buffer+0.1 ml 0.05M ABAP; a test sample contained 0.05 ml of the LA emulsion+2.7-2.8 ml of the buffer+0.1 ml 0.05M ABAP+0.05-0.1 ml of the sample under test. Absorption at 234 nm is followed for 5 minutes to establish the uninhibited rate of autoxidation. […] The test antioxidant was added and the inhibited reaction was followed until the antioxidant was consumed and the rate of the absorption change at 234 nm reverted to that observed at the outset.
# [7] = Stabilization of ascorbic acid (50% ethanol, 60° C., 24 hours, HPLC); conditions: 10 mg/ml ascorbic acid, after 60° C.
# Description: The experiment was repeated with the addition of 0.035 mg or 0.07 mg sodium rosmarinate.
Solubility (Solubility),Compound,Toxicity [5],Efficiency of 10 μg [6] [h],also measured
,"O=C1O[C@H]([C@@H](O)CO)C(O)=C1O [Vitamin C, ascorbic acid]",,,Hours until oxidation ([1]; antioxidant 0.1%): 25.20 h; Days until oxidation ([2]; antioxidant 0.1%): 1 days; protection of β-carotene [3]: little protection
,"COc1ccc(O)c(C(C)(C)C)c1 [BHA, butylated hydroxyanisole]",,,Hours until oxidation ([1]; antioxidant 0.02%): 9.54 h; Days until oxidation ([2]; antioxidant 0.02%): 2 days; Days until oxidation ([4]; concentration 0.02%): 4 days
lipid,"Cc1cc(C(C)(C)C)c(O)c(C(C)(C)C)c1 [BHT, butylated hydroxytoluene]",yes,814,
lipid,Vitamin E,no,444,Hours until oxidation ([1]; antioxidant 0.1%): 9.58 h; Days until oxidation ([2]; antioxidant 0.1%): 1 days; Days until oxidation ([4]; concentration 0.06%): 4 days
water,Cc1c(C)c2c(c(C)c1O)CCC(C)(C(=O)O)O2 (stereo not drawn) [Trolox],no,650,
water,O=C(/C=C/c1ccc(O)c(O)c1)O[C@H](Cc1ccc(O)c(O)c1)C(=O)O [sodium rosmarinate],no,1413,solubility in acetone (Solubility): virtually acetone-insoluble; Days until oxidation ([4]; concentration 0.005% (as 0.2% of the concentrate)): 7 days; Days until oxidation ([4]; concentration 0.013% (as 0.5% of the concentrate)): 8 days
,O=C(/C=C/c1ccc(O)c(O)c1)OC(Cc1ccc(O)c(O)c1)C(=O)O (stereo not drawn) [rosmarinic acid],,,solubility in acetone (Solubility): acetone-soluble; % ascorbic acid ([7]; +0.035 mg additive): 68%; % ascorbic acid ([7]; +0.07 mg additive): 90%
lipid,"CCCOC(=O)c1cc(O)c(O)c(O)c1 [PG, propyl gallate]",yes,500,
lipid,"CC(C)(C)c1cc(O)ccc1O [TBHQ, tertiary-butylhydroxyquinone]",yes,432,
